Values after ≈ are worked out from the molar mass of the structure shown.
Assays:
Format in all cases: functional
Candida albicans [1] = test: Antifungal activity against Candida albicans CPCC 400616 assessed as inhibition of visible growth
Pichia kudriavzevii = test: Antifungal activity against Candida krusei AS 2.1045 assessed as inhibition of visible growth
Candida tropicalis = test: Antifungal activity against Candida tropicalis CGMCC 2.3739 assessed as inhibition of visible growth
Candida parapsilosis = test: Antifungal activity against Candida parapsilosis GIM 2.190 assessed as inhibition of visible growth; details: Lodderomyces parapsilosis
Aspergillus fumigatus = test: Antifungal activity against Aspergillus fumigatus CGMCC 3.7795 assessed as inhibition of visible growth
Candida albicans [2] = test: Antifungal activity against Candida albicans SC 5314 assessed as inhibition of visible growth
Nakaseomyces glabratus = test: Antifungal activity against Clinical isolate Candida glabrata assessed as inhibition of visible growth
Cryptococcus neoformans = test: Antifungal activity against Cryptococcus neoformans CGMCC 2.3161 assessed as inhibition of visible growth

Row | Structure (SMILES) | MIC80 (Candida albicans [1]) [µg/mL] | MIC80 (Pichia kudriavzevii) [µg/mL] | MIC80 (Candida tropicalis) [µg/mL] | MIC80 (Candida parapsilosis) [µg/mL] | MIC80 (Aspergillus fumigatus) [µg/mL] | MIC80 (Candida albicans [2]) [µg/mL] | MIC80 (Nakaseomyces glabratus) [µg/mL] | MIC80 (Cryptococcus neoformans) [µg/mL]
1 | [2H]C([2H])([2H])N(Cc1ccc(-c2ccc(Cl)c(F)c2)nc1)[C@H](C)[C@](O)(Cn1cncn1)c1ccc(F)cc1F | 0.012 (≈ 0.0238 µM) | 0.012 (≈ 0.0238 µM) | 0.006 (≈ 0.0119 µM) | 0.006 (≈ 0.0119 µM) | 0.025 (≈ 0.0495 µM) | 0.012 (≈ 0.0238 µM) | 0.012 (≈ 0.0238 µM) | 0.012 (≈ 0.0238 µM)
2 | [2H]C([2H])([2H])N(Cc1ccc(-c2ccc(Cl)cc2F)nc1)[C@H](C)[C@](O)(Cn1cncn1)c1ccc(F)cc1F | 0.006 (≈ 0.0119 µM) | 0.012 (≈ 0.0238 µM) | 0.012 (≈ 0.0238 µM) | 0.006 (≈ 0.0119 µM) | 0.05 (≈ 0.099 µM) | 0.012 (≈ 0.0238 µM) | 0.012 (≈ 0.0238 µM) | 0.012 (≈ 0.0238 µM)
3 | [2H]C([2H])([2H])N(Cc1ccc(-c2ccc(Cl)cc2F)cc1F)[C@H](C)[C@](O)(Cn1cncn1)c1ccc(F)cc1F | 0.012 (≈ 0.023 µM) | 0.05 (≈ 0.0958 µM) | 0.012 (≈ 0.023 µM) | 0.012 (≈ 0.023 µM) | 0.05 (≈ 0.0958 µM) | 0.012 (≈ 0.023 µM) | 0.025 (≈ 0.0479 µM) | 0.025 (≈ 0.0479 µM)
4 | [2H]C([2H])([2H])N(Cc1ccc(-c2ccc(Cl)c(F)c2)cc1F)[C@H](C)[C@](O)(Cn1cncn1)c1ccc(F)cc1F | 0.012 (≈ 0.023 µM) | 0.025 (≈ 0.0479 µM) | 0.012 (≈ 0.023 µM) | 0.012 (≈ 0.023 µM) | 0.05 (≈ 0.0958 µM) | 0.012 (≈ 0.023 µM) | 0.025 (≈ 0.0479 µM) | 0.025 (≈ 0.0479 µM)
5 | [2H]C([2H])([2H])N(Cc1ccc(-c2ccc(Cl)cc2)c(F)c1)[C@H](C)[C@](O)(Cn1cncn1)c1ccc(F)cc1F | 0.006 (≈ 0.0119 µM) | 0.012 (≈ 0.0238 µM) | 0.006 (≈ 0.0119 µM) | 0.006 (≈ 0.0119 µM) | 0.025 (≈ 0.0496 µM) | 0.006 (≈ 0.0119 µM) | 0.025 (≈ 0.0496 µM) | 0.012 (≈ 0.0238 µM)
6 | [2H]C([2H])([2H])N(Cc1ccc(-c2ccc(Cl)cc2)cn1)[C@H](C)[C@](O)(Cn1cncn1)c1ccc(F)cc1F | 0.006 (≈ 0.0123 µM) | 0.012 (≈ 0.0246 µM) | 0.006 (≈ 0.0123 µM) | 0.006 (≈ 0.0123 µM) | 0.05 (≈ 0.103 µM) | 0.006 (≈ 0.0123 µM) | 0.025 (≈ 0.0513 µM) | 0.012 (≈ 0.0246 µM)
7 | [2H]C([2H])([2H])N(Cc1ccc(-c2ccc(Cl)cc2)cc1F)[C@H](C)[C@](O)(Cn1cncn1)c1ccc(F)cc1F | 0.006 (≈ 0.0119 µM) | 0.012 (≈ 0.0238 µM) | 0.006 (≈ 0.0119 µM) | 0.006 (≈ 0.0119 µM) | 0.025 (≈ 0.0496 µM) | 0.006 (≈ 0.0119 µM) | 0.012 (≈ 0.0238 µM) | 0.012 (≈ 0.0238 µM)
8 | [2H]C([2H])([2H])N(Cc1ccc(-c2ccc(Cl)cc2F)cc1)[C@H](C)[C@](O)(Cn1cncn1)c1ccc(F)cc1F | 0.006 (≈ 0.0119 µM) | 0.012 (≈ 0.0238 µM) | 0.006 (≈ 0.0119 µM) | 0.006 (≈ 0.0119 µM) | 0.012 (≈ 0.0238 µM) | 0.006 (≈ 0.0119 µM) | 0.025 (≈ 0.0496 µM) | 0.012 (≈ 0.0238 µM)
9 | CN(Cc1ccc(-c2ccc(OC(F)(F)F)cc2)nc1)CC(O)(Cn1cncn1)c1ccc(F)cc1F (centres undefined) | 0.012 (≈ 0.0231 µM) | 0.025 (≈ 0.0481 µM) | 0.025 (≈ 0.0481 µM) | 0.006 (≈ 0.0116 µM) | – | 0.012 (≈ 0.0231 µM) | 0.05 (≈ 0.0963 µM) | 0.05 (≈ 0.0963 µM)
10 | CN(Cc1ccc(-c2ccc(C(F)(F)F)cc2)cn1)CC(O)(Cn1cncn1)c1ccc(F)cc1F (centres undefined) | 0.012 (≈ 0.0238 µM) | 0.05 (≈ 0.0993 µM) | 0.012 (≈ 0.0238 µM) | 0.006 (≈ 0.0119 µM) | – | 0.012 (≈ 0.0238 µM) | 0.05 (≈ 0.0993 µM) | 0.025 (≈ 0.0497 µM)
11 | CN(Cc1cnc(-c2ccc(C(F)(F)F)cc2)s1)CC(O)(Cn1cncn1)c1ccc(F)cc1F (centres undefined) | 0.025 (≈ 0.0491 µM) | 0.2 (≈ 0.393 µM) | 0.006 (≈ 0.0118 µM) | 0.05 (≈ 0.0981 µM) | – | 0.025 (≈ 0.0491 µM) | 0.2 (≈ 0.393 µM) | 0.4 (≈ 0.785 µM)
12 | CN(Cc1ccc(-c2ccc(C(F)(F)F)cc2)s1)CC(O)(Cn1cncn1)c1ccc(F)cc1F (centres undefined) | 0.006 (≈ 0.0118 µM) | 0.1 (≈ 0.197 µM) | 0.006 (≈ 0.0118 µM) | 0.006 (≈ 0.0118 µM) | – | 0.012 (≈ 0.0236 µM) | 0.4 (≈ 0.787 µM) | 0.1 (≈ 0.197 µM)
13 | CN(Cc1ccc(-c2ccc(Cl)cc2)s1)CC(O)(Cn1cncn1)c1ccc(F)cc1F (centres undefined) | 0.012 (≈ 0.0253 µM) | 0.05 (≈ 0.105 µM) | 0.006 (≈ 0.0126 µM) | 0.006 (≈ 0.0126 µM) | – | 0.006 (≈ 0.0126 µM) | 0.2 (≈ 0.421 µM) | 0.1 (≈ 0.211 µM)

— ChEMBL document CHEMBL6182926, “Design, Synthesis, and Biological Activity Evaluation of Deuterated Diphenyl Azole Alcohol-Based CYP51 Inhibitors” (J Med Chem, 2025)
